Earlier results, collected in US20260248735A1, “A METHOD FOR PREPARING MICROPARTICLES FOR DRUG DELIVERY” (Danmarks Tekniske Universitet, priority 2023, published 2026).

Settings: as characterised by BCS class

solubility: high
Substance: calcitonin
